Literature values as cited in patent US11526092B2, “Electrophotographic photoreceptor, process cartridge, and image forming apparatus” (FUJIFILM Business Innovation Corp., priority 2019, dated 2022).

Details: in water at 25° C.; first acid dissociation constant (pKa1)

Acidic compound pKa: −2
Structure (SMILES): CCCCCCCCCCCCc1ccc(S(=O)(=O)O)cc1 [DBS, dodecylbenzenesulfonic acid]
